Where two headings read alike, the source gives them in different places.
Legend:
TNFα = assay: IRAK4 Monocyte TNFα Cell Based Assay (LPS-stimulated, TR-FRET TNFα detection); set-up: species or system human; details: read-out: EC50 MONO TNF HTRF
Outline: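 Monocytes (5,000 cells/well) treated with compound (0.1% DMSO) for 1 hour at 37° C, then stimulated with 50 pg/ml LPS for 4 hours. TNFα in medium quantified by TR-FRET two-antibody detection after overnight room-temperature incubation. Percent of control calculated against unstimulated (0%) and LPS-stimulated (100%) cells.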

IRAK4 enzyme = target: T1, IRAK4 enzyme (Homo sapiens, UniProt Q9NWZ3); assay: IRAK4 Biochemical Assay (TR-FRET, STK1 KinEASE); details: 500 μM ATP, Table 2 second part (compounds 33-343), read-out: IC50 IRAK4-HTBS
T1 construct: purchased Carna Biosciences, Chuo-ku, Kobe, Japan
T1 sequence (Q9NWZ3 1-460): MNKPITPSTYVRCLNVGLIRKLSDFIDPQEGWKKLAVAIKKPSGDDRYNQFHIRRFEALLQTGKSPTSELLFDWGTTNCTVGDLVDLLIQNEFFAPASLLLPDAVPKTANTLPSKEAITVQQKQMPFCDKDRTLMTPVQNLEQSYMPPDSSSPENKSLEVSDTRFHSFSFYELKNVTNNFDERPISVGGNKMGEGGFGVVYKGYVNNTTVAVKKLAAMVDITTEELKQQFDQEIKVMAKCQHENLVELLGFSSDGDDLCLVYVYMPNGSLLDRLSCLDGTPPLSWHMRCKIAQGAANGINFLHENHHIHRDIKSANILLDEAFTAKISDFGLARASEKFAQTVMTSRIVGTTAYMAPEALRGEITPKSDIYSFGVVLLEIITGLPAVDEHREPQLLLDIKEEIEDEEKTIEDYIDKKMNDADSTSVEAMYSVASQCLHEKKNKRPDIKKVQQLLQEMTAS
Outline: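 Human IRAK4 (0.75 nM) preincubated 15 min with compound and 2 μM STK1 peptide, then reacted 120 min at room temperature with 500 μM ATP in HEPES pH 7.0 buffer with MgCl2 and DTT. EDTA stop with Cryptate anti-phosphopeptide antibody and tracer, 60 min; TR-FRET read as 665/615 nm ratio.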

[1] = Homo sapiens, Monocyte, human monocytes, LPS-stimulated, Table 2 second part (compounds 33-343)

Molecule	EC50 (TNFα; [1])	IC50 (IRAK4 enzyme)	EC50 (TNFα; human monocytes, LPS-stimulated, Table 2 second part (compounds 33-343))	EC50 (TNFα; Homo sapiens, Monocyte)
CC(C)(O)C(=O)N[C@@H]1[C@@H]2CC[C@H]1CN(c1nnc(-c3cnc(-c4ccc5cc(C#N)cnn45)cc3NC3CCOCC3)s1)C2 [Example 101, N-((1R,5S,8s)-3-(5-(6-(3-cyanopyrrolo[1,2-b]pyridazin-7-yl)-4-((tetrahydro-2H-pyran-4-yl)amino)pyridin-3-yl)-1,3,4-thiadiazol-2-yl)-3-azabicyclo[3.2.1]octan-8-yl)-2-hydroxy-2-methylpropanamide]	1.2 nM	0.89 nM	–	–
CC(C)Nc1cc(-c2ccc3cc(C#N)cnn23)ncc1-c1nnc(N2C[C@H]3CC[C@@H](C2)[C@@H]3Nc2ncccn2)s1 [Compound 308, 7-(4-(isopropylamino)-5-(5-((1R,5S,8s)-8-(pyrimidin-2-ylamino)-3-azabicyclo[3.2.1]octan-3-yl)-1,3,4-thiadiazol-2-yl)pyridin-2-yl)pyrrolo[1,2-b]pyridazine-3-carbonitrile]	18.4 nM	1.85 nM	–	–
COC(=O)N1CCN(C(=O)N[C@@H]2[C@@H]3CC[C@H]2CN(c2nnc(-c4cnc(-c5ccc6cc(C#N)cnn56)cc4NC(C)C)s2)C3)CC1 [Example 105, methyl 4-(((1R,5S,8s)-3-(5-(6-(3-cyanopyrrolo[1,2-b]pyridazin-7-yl)-4-(isopropylamino)pyridin-3-yl)-1,3,4-thiadiazol-2-yl)-3-azabicyclo[3.2.1]octan-8-yl)carbamoyl)piperazine-1-carboxylate]	4.2 nM	0.98 nM	–	–
CC(=O)N[C@]1(C)[C@@H]2CC[C@H]1CN(c1nnc(-c3cnc(-c4ccc5cc(C#N)cnn45)cc3N[C@H](C)C#N)s1)C2 [Example 157, N-((1R,5S,8S)-3-(5-(4-(((R)-1-cyanoethyl)amino)-6-(3-cyanopyrrolo[1,2-b]pyridazin-7-yl)pyridin-3-yl)-1,3,4-thiadiazol-2-yl)-8-methyl-3-azabicyclo[3.2.1]octan-8-yl)acetamide]	1.8 nM	1.03 nM	–	–
CC(=O)N[C@@H]1[C@@H]2CC[C@H]1CN(c1nnc(-c3cnc(-c4ccc5cc(C#N)cnn45)cc3NC3(C)CCOCC3)s1)C2 [Compound 272, N-((1R,5S,8s)-3-(5-(6-(3-cyanopyrrolo[1,2-b]pyridazin-7-yl)-4-((4-methyltetrahydro-2H-pyran-4-yl)amino)pyridin-3-yl)-1,3,4-thiadiazol-2-yl)-3-azabicyclo[3.2.1]octan-8-yl)acetamide]	4.1 nM	1.1 nM	–	–
CC1(Nc2cc(-c3ccc4cc(C#N)cnn34)ncc2-c2nnc(N3C[C@H]4CC[C@@H](C3)[C@H]4O)s2)COC1 [Example 149, 7-(5-(5-((1R,5S,8r)-8-hydroxy-3-azabicyclo[3.2.1]octan-3-yl)-1,3,4-thiadiazol-2-yl)-4-((3-methyloxetan-3-yl)amino)pyridin-2-yl)pyrrolo[1,2-b]pyridazine-3-carbonitrile]	4.9 nM	0.31 nM	–	–
CNc1cc(-c2ccc3cc(C#N)cnn23)ncc1-c1nnc(N2C[C@H]3CC[C@@H](C2)[C@@H]3NC(C)=O)s1 [Compound 292, N-((1R,5S,8s)-3-(5-(6-(3-cyanopyrrolo[1,2-b]pyridazin-7-yl)-4-(methylamino)pyridin-3-yl)-1,3,4-thiadiazol-2-yl)-3-azabicyclo[3.2.1]octan-8-yl)acetamide]	6.7 nM	0.2 nM	–	–
COC(=O)N[C@H]1CC[C@@H](c2nnc(-c3cnc(-c4ccc5cc(C#N)cnn45)cc3NC3COC3)s2)CC1 [Example 205, methyl ((1s,4s)-4-(5-(6-(3-cyanopyrrolo[1,2-b]pyridazin-7-yl)-4-(oxetan-3-ylamino)pyridin-3-yl)-1,3,4-thiadiazol-2-yl)cyclohexyl)carbamate]	20.1 nM	0.62 nM	–	–
CC(C)Nc1cc(-c2ccc3cc(C#N)cnn23)ncc1-c1nnc([C@H]2C[C@@](C)(O)C2)s1 [Example 199, 7-(5-(5-((1s,3s)-3-hydroxy-3-methylcyclobutyl)-1,3,4-thiadiazol-2-yl)-4-(isopropylamino)pyridin-2-yl)pyrrolo[1,2-b]pyridazine-3-carbonitrile]	38.3 nM	0.69 nM	–	–
7-(5-(5-(4-aminobicyclo[2.2.2]octan-1-yl)-1,3,4-thiadiazol-2-yl)-4-((tetrahydro-2H-pyran-4-yl)amino)pyridin-2-yl)pyrrolo[1,2-b]pyridazine-3-carbonitrile [Example 336]	–	0.7 nM	11 nM	–
CC(=O)N[C@H]1[C@@H]2CCC[C@H]1CN(c1nnc(-c3cnc(-c4ccc5cc(C#N)cnn45)cc3NC(C)C)s1)C2 [Example 165, N-((1R,5S,9r)-3-(5-(6-(3-cyanopyrrolo[1,2-b]pyridazin-7-yl)-4-(isopropylamino)pyridin-3-yl)-1,3,4-thiadiazol-2-yl)-3-lazabicyclo[3.3.1]nonan-9-yl)acetamide]	39.1 nM	1.15 nM	–	–
CC(C)Nc1cc(-c2ccc3cc(C#N)cnn23)ncc1-c1nnc(N2C[C@H]3CC[C@@H](C2)[C@@H]3NC(=O)C(=O)N=S(C)(C)=O)s1 [Example 103, N1-((1R,5S,8s)-3-(5-(6-(3-cyanopyrrolo[1,2-b]pyridazin-7-yl)-4-(isopropylamino)pyridin-3-yl)-1,3,4-thiadiazol-2-yl)-3-azabicyclo[3.2.1]octan-8-yl)-N2-(dimethyl(oxo)-16-sulfanylidene)oxalamide]	1.4 nM	0.51 nM	–	–
CC(=O)N[C@@H]1[C@@H]2C[C@H]1CN(c1nnc(-c3cnc(-c4ccc5cc(C#N)cnn45)cc3NC3(C)COC3)s1)C2 [Example 175, N-((1R,5S,6s)-3-(5-(6-(3-cyanopyrrolo[1,2-b]pyridazin-7-yl)-4-((3-methyloxetan-3-yl)amino)pyridin-3-yl)-1,3,4-thiadiazol-2-yl)-3-azabicyclo[3.1.1]heptan-6-yl)acetamide]	–	0.57 nM	–	9 nM
CC(=O)N(C)[C@@H]1[C@@H]2CC[C@H]1CN(c1nnc(-c3cnc(-c4ccc5cc(C#N)cnn45)cc3NC(C)C)s1)C2 [Compound 300, N-((1R,5S,8s)-3-(5-(6-(3-cyanopyrrolo[1,2-b]pyridazin-7-yl)-4-(isopropylamino)pyridin-3-yl)-1,3,4-thiadiazol-2-yl)-3-azabicyclo[3.2.1]octan-8-yl)-N-methylacetamide]	5.3 nM	0.98 nM	–	–
CC(=O)N[C@@H]1[C@@H]2CC[C@H]1CN(c1nnc(-c3cnc(-c4ccc5cc(C#N)cnn45)cc3NC(C)C)s1)C2 [Example 38, N-((1R,5S,8s)-3-(5-(6-(3-cyanopyrrolo[1,2-b]pyridazin-7-yl)-4-(isopropylamino)pyridin-3-yl)-1,3,4-thiadiazol-2-yl)-3-azabicyclo[3.2.1]octan-8-yl)acetamide]	3.5 nM	0.8 nM	–	–
CC(=O)N[C@@H]1[C@@H]2C[C@H]1CN(c1nnc(-c3cnc(-c4ccc5cc(C#N)cnn45)cc3NC(C)C)s1)C2 [Example 173, N-((1R,5S,6s)-3-(5-(6-(3-cyanopyrrolo[1,2-b]pyridazin-7-yl)-4-(isopropylamino)pyridin-3-yl)-1,3,4-thiadiazol-2-yl)-3-azabicyclo[3.1.1]heptan-6-yl)acetamide]	–	1.52 nM	–	11.6 nM
CC(=O)N[C@@H]1[C@@H]2CCC[C@H]1CN(c1nnc(-c3cnc(-c4ccc5cc(C#N)cnn45)cc3NC(C)C)s1)C2 [Example 166, N-((1R,5S,9s)-3-(5-(6-(3-cyanopyrrolo[1,2-b]pyridazin-7-yl)-4-(isopropylamino)pyridin-3-yl)-1,3,4-thiadiazol-2-yl)-3-azabicyclo[3.3.1]nonan-9-yl)acetamide]	2.3 nM	0.66 nM	–	–
